Measured values reported in ChEMBL document CHEMBL5614428, “Synthesis and antibacterial activities of heterocyclic ring-fused 20(S)-protopanaxadiol derivatives” (Bioorg Med Chem, 2024).
≈ marks a conversion by molar mass, not a printed value. Calls of active or inactive are those of the source. The calls are words filed in the database; no cut-off is given here.

Columns and labels:
Staphylococcus aureus [1] = assay: Antibacterial activity against methicillin-resistant Staphylococcus aureus NRS-271 assessed as inhibition of bacterial growth incubated for 18 hrs by two fold serial dilution assay; type: functional
Staphylococcus aureus [2] = assay: Antibacterial activity against methicillin-resistant Staphylococcus aureus NRS-100 assessed as inhibition of bacterial growth incubated for 18 hrs by two fold serial dilution assay; type: functional
Staphylococcus aureus [3] = assay: Antibacterial activity against methicillin-resistant Staphylococcus aureus XJ036 assessed as inhibition of bacterial growth incubated for 18 hrs by two fold serial dilution assay; type: functional
Staphylococcus aureus [4] = assay: Antibacterial activity against methicillin-resistant Staphylococcus aureus NRS-70 assessed as inhibition of bacterial growth incubated for 18 hrs by two fold serial dilution assay; type: functional
Staphylococcus aureus [5] = assay: Antibacterial activity against methicillin-resistant Staphylococcus aureus NRS-1 assessed as inhibition of bacterial growth incubated for 18 hrs by two fold serial dilution assay; type: functional
Staphylococcus aureus [6] = assay: Antibacterial activity against methicillin-resistant Staphylococcus aureus NRS-108 assessed as inhibition of bacterial growth incubated for 18 hrs by two fold serial dilution assay; type: functional
Staphylococcus aureus [7] = assay: Antibacterial activity against methicillin-resistant Staphylococcus aureus XJ017 assessed as inhibition of bacterial growth incubated for 18 hrs by two fold serial dilution assay; type: functional
Staphylococcus aureus [8] = assay: Antibacterial activity against methicillin-resistant Staphylococcus aureus USA300 assessed as inhibition of bacterial growth incubated for 18 hrs by two fold serial dilution assay; type: functional
Staphylococcus aureus [9] = assay: Antibacterial activity against Staphylococcus aureus Newman assessed as inhibition of bacterial growth incubated for 18 hrs by two fold serial dilution assay; type: functional
Staphylococcus aureus [10] = assay: Antibacterial activity against methicillin-resistant Staphylococcus aureus USA300 assessed as fold increase in inhibition of bacterial growth incubated for 18 hrs by two fold serial dilution assay relative to (S)-4-((1S,3aR,3bR,5aR,13aR,13bR,15R,15aR)-15-hydroxy-3a,3b,6,6,13a-pentamethyl-2,3,3a,3b,4,5,5a,6,13,13a,13b,14,15,15a-tetradecahydro-1H-cyclopenta[5,6]naphtho[1,2-b]phenazin-1-yl)pentane-1,4-diol; type: functional
Staphylococcus aureus [11] = assay: Antibacterial activity against methicillin-resistant Staphylococcus aureus USA300 infected in zebrafish assessed as increase in survival rate at 50 mg/kg,ip administration measured for 5 days relative to Vancomycin; type: functional, organism-based; conditions: time 5.0 day
Staphylococcus aureus [12] = assay: Antibacterial activity against Staphylococcus aureus Newman assessed as fold increase in inhibition of bacterial growth incubated for 18 hrs by two fold serial dilution assay relative to (S)-4-((1S,3aR,3bR,5aR,12aR,12bR,14R,14aR)-14-hydroxy-3a,3b,6,6,12a-pentamethyl-1,2,3,3a,3b,4,5,5a,6,7,12,12a,12b,13,14,14a-hexadecahydrocyclopenta[5,6]naphtho[2,1-b]carbazol-1-yl)pentane-1,4-diol; type: functional
Staphylococcus aureus [13] = assay: Antibacterial activity against methicillin-resistant Staphylococcus aureus USA300 infected in zebrafish assessed as increase in survival rate at 25 mg/kg,ip administration measured for 5 days; type: functional, organism-based; conditions: time 5.0 day
[14] = Toxicity in Zebrafish at 25 to 75 mg/kg,ip administration measured upto 120 hrs; type: organism-based, Danio rerio; conditions: in vivo, dose 25-75 mg/kg

Row | SMILES | MIC (Staphylococcus aureus [1]) [µg/mL] | MIC (Staphylococcus aureus [2]) [µg/mL] | MIC (Staphylococcus aureus [3]) [µg/mL] | MIC (Staphylococcus aureus [4]) [µg/mL] | MIC (Staphylococcus aureus [5]) [µg/mL] | MIC (Staphylococcus aureus [6]) [µg/mL] | MIC (Staphylococcus aureus [7]) [µg/mL] | MIC (Staphylococcus aureus [8]) [µg/mL] | MIC (Staphylococcus aureus [9]) [µg/mL] | fold change (FC) (Staphylococcus aureus [10]) | Activity (Staphylococcus aureus [11]) | fold change (FC) (Staphylococcus aureus [12]) | Activity (Staphylococcus aureus [13]) | Activity [14]
1 | C[C@H]1COc2c(N3CCN(C)CC3)c(F)cc3c(=O)c(C(=O)O)cn1c23 [LEVOFLOXACIN ANHYDROUS] | 4 (≈ 11.1 µM) | 0.125 (≈ 0.346 µM) | 32 (≈ 88.6 µM) | 0.125 (≈ 0.346 µM) | 16 (≈ 44.3 µM) | 0.125 (≈ 0.346 µM) | 64 (≈ 177 µM) | – | – | – | – | – | – | –
2 | CC1(C)c2nc3ccccc3nc2C[C@]2(C)[C@H]3C[C@@H](O)[C@@H]4[C@@H]([C@@](C)(O)CCC(=O)Nc5cnccn5)CC[C@@]4(C)[C@]3(C)CC[C@@H]12 | 8 (≈ 13.1 µM) | 4 (≈ 6.54 µM) | 4 (≈ 6.54 µM) | 4 (≈ 6.54 µM) | > 64 | 4 (≈ 6.54 µM) | 16 (≈ 26.2 µM) | 2 (≈ 3.27 µM) | 2 (≈ 3.27 µM) | – | – | – | – | –
3 | CCNC(=O)CC[C@](C)(O)[C@H]1CC[C@]2(C)[C@@H]1[C@H](O)C[C@@H]1[C@@]3(C)Cc4nc5ccccc5nc4C(C)(C)[C@@H]3CC[C@]12C | 4 (≈ 7.12 µM) | 4 (≈ 7.12 µM) | 4 (≈ 7.12 µM) | 4 (≈ 7.12 µM) | > 64 | 4 (≈ 7.12 µM) | 8 (≈ 14.2 µM) | 4 (≈ 7.12 µM) | 4 (≈ 7.12 µM) | – | – | – | – | –
4 | CN(C)C(=O)CC[C@](C)(O)[C@H]1CC[C@]2(C)[C@@H]1[C@H](O)C[C@@H]1[C@@]3(C)Cc4nc5ccccc5nc4C(C)(C)[C@@H]3CC[C@]12C | 4 (≈ 7.12 µM) | 8 (≈ 14.2 µM) | 8 (≈ 14.2 µM) | 4 (≈ 7.12 µM) | 4 (≈ 7.12 µM) | 4 (≈ 7.12 µM) | > 64 | 4 (≈ 7.12 µM) | 4 (≈ 7.12 µM) | – | – | – | – | –
5 | CC1(C)S[C@@H]2[C@H](NC(=O)[C@H](N)c3ccccc3)C(=O)N2[C@H]1C(=O)O [AMPICILLIN] | 4 (≈ 11.4 µM) | 0.063 (≈ 0.18 µM) | 8 (≈ 22.9 µM) | 8 (≈ 22.9 µM) | – | 2 (≈ 5.72 µM) | 32 (≈ 91.6 µM) | – | – | – | – | – | – | –
6 | CC1(C)c2nc3ccccc3nc2C[C@]2(C)[C@H]3C[C@@H](O)[C@@H]4[C@@H]([C@@](C)(O)CCC(=O)Nc5ncc[nH]5)CC[C@@]4(C)[C@]3(C)CC[C@@H]12 | 2 (≈ 3.33 µM) | 8 (≈ 13.3 µM) | 4 (≈ 6.67 µM) | 1 (≈ 1.67 µM) | 8 (≈ 13.3 µM) | 2 (≈ 3.33 µM) | 2 (≈ 3.33 µM) | 2 (≈ 3.33 µM) | 2 (≈ 3.33 µM) | – | – | – | – | –
7 | CC1(C)c2nc3ccccc3nc2C[C@]2(C)[C@H]3C[C@@H](O)[C@@H]4[C@@H]([C@@](C)(O)CCC(N)=O)CC[C@@]4(C)[C@]3(C)CC[C@@H]12 | 4 (≈ 7.49 µM) | 4 (≈ 7.49 µM) | 4 (≈ 7.49 µM) | 4 (≈ 7.49 µM) | 4 (≈ 7.49 µM) | 4 (≈ 7.49 µM) | 4 (≈ 7.49 µM) | 4 (≈ 7.49 µM) | 4 (≈ 7.49 µM) | 2 | – | – | – | –
8 | CC1(C)c2nc3ccccc3nc2C[C@]2(C)[C@H]3C[C@@H](O)[C@@H]4[C@@H]([C@@](C)(O)CCC(=O)Nc5ccc6ncsc6c5)CC[C@@]4(C)[C@]3(C)CC[C@@H]12 | – | – | – | – | – | – | – | > 64 | > 64 | – | – | – | – | –
9 | CNC(=O)CC[C@](C)(O)[C@H]1CC[C@]2(C)[C@@H]1[C@H](O)C[C@@H]1[C@@]3(C)Cc4nc5ccccc5nc4C(C)(C)[C@@H]3CC[C@]12C | 8 (≈ 14.6 µM) | 8 (≈ 14.6 µM) | 8 (≈ 14.6 µM) | 4 (≈ 7.3 µM) | 4 (≈ 7.3 µM) | 4 (≈ 7.3 µM) | 16 (≈ 29.2 µM) | 4 (≈ 7.3 µM) | 4 (≈ 7.3 µM) | – | – | – | – | –
10 | CC(C)=CCC[C@](C)(O)[C@H]1CC[C@]2(C)[C@@H]1[C@H](O)C[C@@H]1[C@@]3(C)Cc4nc5ccccc5nc4C(C)(C)[C@@H]3CC[C@]12C | – | – | – | – | – | – | – | > 64 | > 64 | – | – | – | – | –
11 | CC1(C)c2nc3ccccc3cc2C[C@]2(C)[C@H]3C[C@@H](O)[C@@H]4[C@@H]([C@@](C)(O)CCCO)CC[C@@]4(C)[C@]3(C)CC[C@@H]12 | – | – | – | – | – | – | – | > 64 | 2 (≈ 3.85 µM) | – | – | – | – | –
12 | CC1(C)c2nc3ccccc3nc2C[C@]2(C)[C@H]3C[C@@H](O)[C@@H]4[C@@H]([C@@](C)(O)CCC(=O)Nc5ccc(C(F)(F)F)cc5)CC[C@@]4(C)[C@]3(C)CC[C@@H]12 | – | – | – | – | – | – | – | > 64 | > 64 | – | – | – | – | –
13 | CC1(C)c2ncncc2C[C@]2(C)[C@H]3C[C@@H](O)[C@@H]4[C@@H]([C@@](C)(O)CCCO)CC[C@@]4(C)[C@]3(C)CC[C@@H]12 | – | – | – | – | – | – | – | > 64 | > 64 | – | – | – | – | –
14 | CC1(C)c2nc3ccccc3nc2C[C@]2(C)[C@H]3C[C@@H](O)[C@@H]4[C@@H]([C@@](C)(O)CCC(=O)Nc5nccs5)CC[C@@]4(C)[C@]3(C)CC[C@@H]12 | 1 (≈ 1.62 µM) | 4 (≈ 6.48 µM) | 1 (≈ 1.62 µM) | 1 (≈ 1.62 µM) | 1 (≈ 1.62 µM) | 2 (≈ 3.24 µM) | 0.5 (≈ 0.811 µM) | 1 (≈ 1.62 µM) | 1 (≈ 1.62 µM) | – | Active | 4 | Active | Non-Toxic
15 | CC1(C)c2nc3ccccc3nc2C[C@]2(C)[C@H]3C[C@@H](O)[C@@H]4[C@@H]([C@@](C)(O)CCC(=O)Nc5cccnc5)CC[C@@]4(C)[C@]3(C)CC[C@@H]12 | 16 (≈ 26.2 µM) | 8 (≈ 13.1 µM) | 4 (≈ 6.55 µM) | 8 (≈ 13.1 µM) | > 64 | 8 (≈ 13.1 µM) | 16 (≈ 26.2 µM) | 4 (≈ 6.55 µM) | 2 (≈ 3.27 µM) | – | – | – | – | –
16 | COc1ccc(NC(=O)CC[C@](C)(O)[C@H]2CC[C@]3(C)[C@@H]2[C@H](O)C[C@@H]2[C@@]4(C)Cc5nc6ccccc6nc5C(C)(C)[C@@H]4CC[C@]23C)cc1 | – | – | – | – | – | – | – | > 64 | > 64 | – | – | – | – | –
